Reference: patent US11744868B1, “Inonotus obliquus dextran, preparation method and application thereof” (Jilin Agricultural University, priority 2022, dated 2023)
Structures can show the parent of a compound that is named as a salt.

Key:
[1] = tested on: AsPC-1 (human metastatic pancreatic adenocarcinoma cells) cells; assay: CCK-8 cell viability of AsPC-1 cells; assay type: cell-based; conditions: for Cell vitality (%): 24 h, n = 3
Procedure: Therapeutic effects of two drugs, Inonotus Obliquus polysaccharide and gemcitabine hydrochloride, alone and in combination, on AsPC-1 (human metastatic pancreatic adenocarcinoma cells) cells are investigated respectively. Cell culture: AsPC-1 (human metastatic pancreatic adenocarcinoma cells) cells are resuscitated in culture flasks and incubated at 37° C. in a 5% CO2 incubator; the cells are adhered to the wall and then subjected to passaging or […] operations; inoculation: when the cells are in logarithmic growth phase, they are washed twice with PBS buffer (phosphate concentration 0.01 M, pH 7.2-7.4); the cells are digested by 1 mL of 0.25% trypsin-EDTA (ethylene diamine tetraacetic acid) for 1-2 min, then 2 mL of RPMI-1640 culture solution containing 10% fetal bovine serum and 1% of double antibodies (penicillin and streptomycin) is added to terminate the digestion, followed by centrifuging at 1,000 revolutions per minute (rpm) for 3 min; then the wall-adhered cells are completely blown down and enumerated by hemocytometer plates, where the cells are inoculated in an 96-well plate in an amount of 100 μL per well, with a controlled number of 5,000 cells per well, and incubated in an incubator for 24 h. CCK-8 experiment dosing: […] Calculation of cell viability for each group:Cell viability (%)=(ODsample−ODblank)×100/(ODcontrol−ODblank)

AsPC-1 cell = conditions: 0, 200 μg/mL, 400 μg/mL, 800 ng/mL; 24 h incubation; FIG. 9
Procedure: 1.2 experimental cell line AsPC-1 of human metastatic pancreatic cancer is purchased from American Type Culture Collection (ATCC);
2.1 human metastatic pancreatic cancer cells are cultured in RPMI-1640 culture medium (containing penicillin 100 U/mL, streptomycin 100 U/mL and 10% fetal bovine serum) at 37° C. in a 5% CO2 constant temperature incubator, and cells of logarithmic growth phase are taken for the experiment;

Compound | Cell vitality (%) ([1]; 400 μg/mL IOP1-1 + 0 μg/mL gemcitabine hydrochloride) | Cell vitality (%) ([1]; 800 μg/mL IOP1-1 + 0 μg/mL gemcitabine hydrochloride) | therapeutic effect on AsPC-1 tumor cells / tumor inhibition ([1]; summary in words of Table 2) | mitochondrial membrane potential (AsPC-1 cell) | Cell vitality (%) ([1]; 0 μg/mL IOP1-1 + 20 μg/mL gemcitabine hydrochloride)
Inonotus Obliquus dextran [IOP1-1] | 78.2 ± 2.24% | 66.5 ± 4.12% | excellent | decreases as the concentration of drug administered increases | –
Nc1ccn([C@@H]2O[C@H](CO)[C@@H](O)C2(F)F)c(=O)n1 [gemcitabine hydrochloride, reference compound] | – | – | – | – | 66.1 ± 5.49%
